Values after ≈ are worked out from the molar mass of the structure shown. Where two headings read alike, the source gives them in different places.
What was measured:
[1] = ref 102; cited from earlier work
[2] = cited from earlier work
MCF-7 = conditions: incubation time: 24 h, cited from earlier work
[3] = Lipophilicity via RP-HPLC; assay type: physicochemical
Procedure: The analyses were carried out on the following chromatographic columns: RP-18e Purospher STAR (C18), 150 mm × 4.0 mm, 5 µm, (Merck, Darmstadt, Germany); RP-8e Purospher STAR (C8), 150 mm × 4.6 mm, 5 µm, (Merck, Darmstadt, Germany); Zorbax Eclipse XDB-CN (CN), 150 mm × 4.6 mm, 5 µm, (Agilent Technologies, Santa Clara, CA, USA); Nucleosil Phenyl (PHE), 250 mm × 4.6 mm, 7 µm, (Supelco, Bellefonte, PA, USA); and Regis Rexchrom IAM.PC.DD.2 (IAM), 100 mm × 4.6 mm, 10 µm, (Regis Technologies Inc., Morton Grave, IL, USA). The experimental conditions and the calculations were as described in [46].

[4] = CABTS = 7 mM, cited from earlier work; for inhibition: C = 10 μM, t = 7 min, read-out: ABTS radical scavenging activity (%); for IC50: t = 6 min, read-out: ABTS, IC50
[5] = cited from earlier work; remark: listed apart in the source
MDA-MB-231 cells [6] = assay: Cytotoxicity, neutral red (NR) assay; assay type: cell-based, human; conditions: for Cytotoxicity (mM) in Cell Line MDA-MB-231, IC50: 48 h treatment, neutral red assay
Procedure: (§1) Briefly, MCF-7 cells were cultured in EMEM (Biological Industries, Israel) medium supplemented with 10% fetal calf serum (Gibco). MDA-MB-231 cells were cultured in Leibovitz‘s L15 (Biological Industries, Beit HaEmek, Israel) medium supplemented with 10% fetal calf serum (Gibco). The MCF-7 cells were incubated in a 5% CO2 atmosphere at 37 °C, whereas the MDA-231 cells were incubated in a 100% air atmosphere at 37 °C.
(§2) Cytotoxicity evaluation was conducted to assess the impact of hydroxybenzoic acids on the proliferation of MCF-7 and MDA-MB-231 cells, which was measured via neutral red (NR) assay. In brief, cells were seeded in 96-well microplates (TPP, Switzerland) at a density of 2 × 10^4 cells/well in 100 μL of culture medium. At least three independent experiments in six replicate wells were conducted per concentration. Twenty-four hours after cell seeding, cells were treated with increasing concentrations of hydroxybenzoic acids (0.02–5 mM) for forty-eight hours. After treatment, cells were incubated for 3 h at 37 °C with 100 µL of neutral red solution (stock solution of NR) (Sigma-Aldrich), and then 5 mg/mL of PBS was diluted 1:100 in cell culture medium, incubated for 12 h at 37 °C, and centrifuged to remove any undissolved NR powder. […] After 15 min of gentle shaking, optical density was read at 540 nm with an Infinite M200 plate reader spectrophotometer (Tecan, Austria).

MCF-7 cells = assay: Cytotoxicity, neutral red (NR) assay; assay type: cell-based, human; conditions: for Cytotoxicity (mM) in Cell Line MCF-7, IC50: 48 h treatment, neutral red assay
Procedure: as §1, §2

[7] = Pro-oxidant activity, Trolox oxidation assay; assay type: biochemical; conditions: after 120 min of incubation, concentrations of 35 μM
Procedure: The pro-oxidant activity was expressed as the rate of Trolox oxidation according to the protocol described in [45]. First, a mixture of 0.5 mL of Trolox (C = 0.4 mM; in water) with 0.5 mL of H2O2 (C = 0.2 mM; in water), 0.5 mL of HRP (C = 0.04 μM; in phosphate buffer; pH = 7), 5 μL of the tested compounds (C = 50 μM; in methanol), and […] of distilled water was prepared as the tested sample. […] The control contained methanol instead of the tested substance.

[8] = system: E. coli, P. aeruginosa, S. aureus, B. subtilis, S. enteritidis, and C. albicans; assay: MIC, stated for all tested strains together; assay type: cell-based; conditions: all of the tested strains
Procedure: The following bacterial strains were used in this study: Escherichia coli (PCM 2857), Pseudomonas aeruginosa (PCM 2720), Bacillus subtilis (PCM 2850), Staphylococcus aureus (PCM 2267), Salmonella enteritidis (NCTC 4776), and Candida albicans (PCM 2566-FY). The microbial strains were bought from the Polish Collection of Microorganisms (Wroclaw, Poland) or the American Type Culture Collection. Bacteria (0.1 mL of the reconstituted suspension) were seeded onto sterile Mueller–Hinton agar plates (Biomaxima), to which previously suitable amounts of the tested compounds were added to give the desired concentration.
(§3) The MIC (minimal inhibitory concentration) was determined by serial dilution of the tested compound in an agar medium, to which the appropriate inoculum of microorganisms was then added and incubated. Escherichia coli, Pseudomonas aeruginosa, Staphylococcus aureus, Bacillus subtilis, Salmonella enteritidis, and Candida albicans were grown overnight and then resuspended in physiological saline to an optical density at 600 nm (OD = 600) of 0.60, corresponding to 5.0 × 10^8 CFU/mL. Bacteria (0.1 mL of the reconstituted suspension) were seeded onto sterile Mueller–Hinton agar plates, to which previously suitable amounts of the tested compounds were added to reach the desired concentration. Tested chemicals were dissolved in DMSO solution. Negative controls were agar plates, to which DMSO was added, while positive controls were plates with gentamycin (in the case of bacteria) or flucanozole (in the case of fungi). The plates were incubated at 37 °C for 24 h. The lowest concentration without visible bacterial growth was determined as the MIC.

[9] = system: Salmonella enteritidis (NCTC 4776); assay: MIC by serial dilution in agar medium; assay type: cell-based; conditions: Salmonella enterica
Procedure: The following bacterial strains were used in this study: Escherichia coli (PCM 2857), Pseudomonas aeruginosa (PCM 2720), Bacillus subtilis (PCM 2850), Staphylococcus aureus (PCM 2267), Salmonella enteritidis (NCTC 4776), and Candida albicans (PCM 2566-FY). The microbial strains were bought from the Polish Collection of Microorganisms (Wroclaw, Poland) or the American Type Culture Collection.
as §3

MDA-MB-231 cells [10] = system: MDA-MB-231 cells; design: method as in PMID 31746356; conditions: incubated for 48 h; cited from earlier work
[11] = C = 0,001 mg/mL, λ = 593 nm, t = 30 min
[12] = Salmonella enteritidis, read-out: MIC

| SMILES | LogPexp. [1] | FRAP [2, 11] | log kw ([3]; C8 column) | ϕ0 ([3]; C8 column) | log kw ([3]; C18 column) | ϕ0 ([3]; C18 column) | log kw ([3]; CN column) | ϕ0 ([3]; CN column) | log kw ([3]; IAM column) | ϕ0 ([3]; IAM column) | log kw ([3]; PHE column) | ϕ0 ([3]; PHE column) | inhibition [4] | IC50 ([4]; ref 73) | pKaexp. ([5]; ref 104) | pKaexp. ([5]; ref 105) | degree of Trolox oxidation [7] | MIC [8] | IC50 ([4]; ref 68) | MIC [9, 12] | other results |
| --- | --- | --- | --- | --- | --- | --- | --- | --- | --- | --- | --- | --- | --- | --- | --- | --- | --- | --- | --- | --- | --- |
| O=C(O)c1cc(O)c(O)c(O)c1 [3,4,5-THB, 3,4,5-trihydroxybenzoic acid] | 0.70 [102] | ≈ 1.03 (C = 0,001 mg/mL), λ = 593 nm, t = 30 min) [73] μM Fe^2+ | 0.50 | 0.91 | 1.91 | 0.37 | 1.24 | 1.06 | 0.15 | 1.44 | 0.83 | 0.33 | ~80% | 4.33 µM | 4.41 | 3.94 |  |  |  |  | cell proliferation of MCF-7, % of control (MCF-7; 5 μg/mL): 42.73 % of control; concentration inhibiting 50% of MCF-7 cancer cells (MCF-7): 7.5 µg/mL; pKaexp. ([5]; ref 110): 4.40; inhibition of growth of MDA-MB-231 cells (MDA-MB-231 cells [6]; concentration of 5 mM): almost completely; inhibition of growth of MCF-7 cells (MCF-7 cells; concentration of 5 mM): almost completely |
| O=C(O)c1ccc(O)c(O)c1 [3,4-DHB, 3,4-dihydroxybenzoic acid] | 0.86 [102] | ≈ 0.65 (C = 0,001 mg/mL), λ = 593 nm, t = 30 min) [73] μM Fe^2+ | 1.00 | 0.83 | 2.32 | 0.45 | 1.58 | 1.08 | 0.44 | 1.13 | 1.07 | 0.50 | ~38% | 20.7 µM | 4.48 | 4.16 | 8.44% | 2000 µg/mL (≈ 13 mM) | 10.1 µM |  | pKaexp. ([5]; at 25 °C): 4.26; Cytotoxicity (mM) in Cell Line MDA-MB-231, IC50 (MDA-MB-231 cells [6]): nontoxic; Cytotoxicity (mM) in Cell Line MCF-7, IC50 (MCF-7 cells): nontoxic; MIC [9]: 2000 µg/mL (≈ 13 mM) |
| O=C(O)c1cc(O)cc(O)c1 [3,5-DHB, 3,5-dihydroxybenzoic acid] | 0.86 [102] | ≈ 0.03 (C = 0,001 mg/mL), λ = 593 nm, t = 30 min) [73] μM Fe^2+ | 0.90 | 0.83 | 2.56 | 0.45 | 1.78 | 1.07 | 0.51 | 1.16 | 1.03 | 0.55 |  | 41.9 µM | 4.04 | 3.61 | 8.03% |  |  | 2000 µg/mL (≈ 13 mM) | pKaexp. ([5]; ref 108): 4.04; Cytotoxicity (mM) in Cell Line MDA-MB-231, IC50 (MDA-MB-231 cells [6]): nontoxic; Cytotoxicity (mM) in Cell Line MCF-7, IC50 (MCF-7 cells): nontoxic |
| O=C(O)c1cccc(O)c1O [2,3-DHB, 2,3-Dihydroxybenzoic acid] | 1.20 [102] |  | 1.70 | 0.87 | 2.47 | 0.60 | 1.59 | 1.16 | 2.17 | 1.08 | 1.25 | 0.93 |  | 10.7 µM | 2.98 | 2.56 |  | 5000 µg/mL (≈ 32.4 mM) |  | 5000 µg/mL (≈ 32.4 mM) | concentration that inhibited colony formation (MDA-MB-231 cells [10]): ~ 500 µM; pKaexp. ([5]; at 25 °C): 2.91 |
| O=C(O)c1c(O)cccc1O [2,6-DHB, 2,6-dihydroxybenzoic acid] | 2.20 [102] |  | 1.17 | 1.05 | 2.99 | 0.68 | 1.49 | 1.08 | 1.31 | 1.14 | 0.87 | 1.05 |  |  | 1.30 | 1.51 | 9.52% |  |  | 3000 µg/mL (≈ 19.5 mM) |  |
| O=C(O)c1cc(O)ccc1O [2,5-DHB, 2,5-dihydroxybenzoic acid] |  | ≈ 0.98 (C = 0,001 mg/mL), λ = 593 nm, t = 30 min) [73] μM Fe^2+ |  |  |  |  |  |  |  |  |  |  |  | 15.6 µM |  |  |  |  | ~6.5 µM | 3000 µg/mL (≈ 19.5 mM) | concentration that inhibited colony formation (MDA-MB-231 cells [10]): 100 µM; FRAP ([2]; C = 5 μM, λ = 594 nm, t = n.d.): 75.39 (C = 5 μM, λ = 594 nm, t = n.d.) [62] μM Fe^2+; FRAP ([2]; C = 50 μM, λ = 594 nm, t = n.d.): 236.86 (C = 50 μM, λ = 594 nm, t = n.d.) [62] μM Fe^2+ |

Source: PMC8466373, “Plant-Derived and Dietary Hydroxybenzoic Acids—A Comprehensive Study of Structural, Anti-/Pro-Oxidant, Lipophilic, Antimicrobial, and Cytotoxic Activity in MDA-MB-231 and MCF-7 Cell Lines” (Nutrients, 2021)
